Target: BRAF^V600E protein (Homo sapiens, UniProt P15056, V600E)
Assay: HiBiT cellular BRAF V600E degradation assay
Assay type: cell-based
Settings: 24 h incubation; for DC50: A375.10 cells (HiBiT tag knocked in at N-terminal of BRAF V600E), concentration at which 50% of total cellular BRAF V600E is degraded; for Emax / HiBit 24 h Emax: A375.10 cells, Emax = amount of residual protein remaining in the cell after compound treatment; for Emax: read-out: HiBit 24 h Emax

Chain of BRAF^V600E protein (P15056 whole entry V600E): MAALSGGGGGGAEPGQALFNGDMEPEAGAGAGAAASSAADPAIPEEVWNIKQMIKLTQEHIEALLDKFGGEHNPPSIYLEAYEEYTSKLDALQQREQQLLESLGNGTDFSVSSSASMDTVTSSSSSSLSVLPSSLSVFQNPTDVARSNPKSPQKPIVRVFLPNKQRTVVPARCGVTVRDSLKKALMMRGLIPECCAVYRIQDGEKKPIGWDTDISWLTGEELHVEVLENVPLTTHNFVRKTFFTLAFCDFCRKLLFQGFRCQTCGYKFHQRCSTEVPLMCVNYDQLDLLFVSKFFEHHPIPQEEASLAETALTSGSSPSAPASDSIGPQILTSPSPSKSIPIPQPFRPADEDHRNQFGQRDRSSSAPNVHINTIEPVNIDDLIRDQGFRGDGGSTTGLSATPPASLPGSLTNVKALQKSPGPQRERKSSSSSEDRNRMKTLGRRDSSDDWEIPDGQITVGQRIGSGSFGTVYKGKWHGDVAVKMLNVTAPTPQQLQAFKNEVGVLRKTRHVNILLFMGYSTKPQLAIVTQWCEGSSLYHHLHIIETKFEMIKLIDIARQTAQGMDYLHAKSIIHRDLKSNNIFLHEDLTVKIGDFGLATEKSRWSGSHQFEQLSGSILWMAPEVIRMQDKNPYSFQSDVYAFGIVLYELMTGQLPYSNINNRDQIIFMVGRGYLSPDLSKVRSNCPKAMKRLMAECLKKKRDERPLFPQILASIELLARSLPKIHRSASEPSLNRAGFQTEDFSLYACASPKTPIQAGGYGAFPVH

| SMILES | DC50 [nM] | Emax [%] | DC50 (formic acid) [nM] | HiBit 24 h Emax (formic acid) [%] | HiBit 24 h Emax [%] |
| --- | --- | --- | --- | --- | --- |
| CCN(C)S(=O)(=O)Nc1ccc(F)c(C(=O)c2c[nH]c3ncc(-c4ccc(N5CCC(NC(=O)CN6CCC(c7ccc(NC8CCC(=O)NC8=O)cn7)CC6)CC5)nc4)cc23)c1F (centres unmarked) [Example A57, 2-[4-[5-[(2,6-dioxopiperidin-3-yl)amino]pyridin-2-yl]piperidin-1-yl]-N-[1-[5-[3-[3-[[ethyl(methyl)sulfamoyl]amino]-2,6-difluorobenzoyl]-1H-pyrrolo[2,3-b]pyridin-5-yl]pyridin-2-yl]piperidin-4-yl]acetamide;formic acid] | 33 | 13 | – | – | – |
| CCN(C)S(=O)(=O)Nc1ccc(F)c(C(=O)c2c[nH]c3ncc(-c4cnc(N5CCC(NC(=O)CN6CCC(c7ccc(NC8CCC(=O)NC8=O)cn7)CC6)CC5)nc4)cc23)c1F (centres unmarked) [Example A58, 2-[4-[5-[(2,6-dioxopiperidin-3-yl)amino]pyridin-2-yl]piperidin-1-yl]-N-[1-[5-[3-[3-[[ethyl(methyl)sulfamoyl]amino]-2,6-difluorobenzoyl]-1H-pyrrolo[2,3-b]pyridin-5-yl]pyrimidin-2-yl]piperidin-4-yl]acetamide; formic acid] | 43 | 13 | – | – | – |
| CCN(C)S(=O)(=O)Nc1ccc(F)c(C(=O)c2c[nH]c3ncc(-c4cnc(N5CCC(NC(=O)CN6CCC(c7ccc(OC8CCC(=O)NC8=O)cc7)CC6)CC5)nc4)cc23)c1F (centres unmarked) [Example A59, 2-[4-[4-(2,6-Dioxopiperidin-3-yl)oxyphenyl]piperidin-1-yl]-N-[1-[5-[3-[3-[[ethyl(methyl)sulfamoyl]amino]-2,6-difluorobenzoyl]-1H-pyrrolo[2,3-b]pyridin-5-yl]pyrimidin-2-yl]piperidin-4-yl]acetamide;formic acid] | 60 | 13 | – | – | – |
| CCN(C)S(=O)(=O)Nc1ccc(F)c(C(=O)c2c[nH]c3ncc(-c4cnc(N5CCC(NC(=O)CN6CCC(c7ccc(OC8CCC(=O)NC8=O)cn7)CC6)CC5)nc4)cc23)c1F (centres unmarked) [Example A60, 2-[4-[5-(2,6-Dioxopiperidin-3-yl)oxypyridin-2-yl]piperidin-1-yl]-N-[1-[5-[3-[3-[[ethyl(methyl)sulfamoyl]amino]-2,6-difluorobenzoyl]-1H-pyrrolo[2,3-b]pyridin-5-yl]pyrimidin-2-yl]piperidin-4-yl]acetamide;formic acid] | 275 | 24 | – | – | – |
| CCN(C)S(=O)(=O)Nc1ccc(F)c(C(=O)c2c[nH]c3ncc(-c4ccc(N5CCC(NC(=O)CN6CCC(c7ccc(OC8CCC(=O)NC8=O)cc7)CC6)CC5)nc4)cc23)c1F (centres unmarked) [Example A61, 2-[4-[4-(2,6-Dioxopiperidin-3-yl)oxyphenyl]piperidin-1-yl]-N-[1-[5-[3-[3-[[ethyl(methyl)sulfamoyl]amino]-2,6-difluorobenzoyl]-1H-pyrrolo[2,3-b]pyridin-5-yl]pyridin-2-yl]piperidin-4-yl]acetamide;formic acid] | 40 | 16 | – | – | – |
| CCN(C)S(=O)(=O)Nc1ccc(F)c(C(=O)c2c[nH]c3ncc(-c4cnc(N5CCC(NC(=O)CN6CCC(c7ccc(NC8CCC(=O)NC8=O)cc7)CC6)CC5)nc4)cc23)c1F (centres unmarked) [Example A62, 2-[4-[4-[(2,6-Dioxopiperidin-3-yl)amino]phenyl]piperidin-1-yl]-N-[1-[5-[3-[3-[[ethyl(methyl)sulfamoyl]amino]-2,6-difluorobenzoyl]-1H-pyrrolo[2,3-b]pyridin-5-yl]pyrimidin-2-yl]piperidin-4-yl]acetamide;formic acid] | 8 | 18 | – | – | – |
| CCN(C)S(=O)(=O)Nc1ccc(F)c(C(=O)c2c[nH]c3ncc(-c4ccc(N5CCC(NC(=O)CN6CCC(c7ccc(OC8CCC(=O)NC8=O)cn7)CC6)CC5)cc4)cc23)c1F (centres unmarked) [Example A64, 2-[4-[5-(2,6-Dioxopiperidin-3-yl)oxypyridin-2-yl]piperidin-1-yl]-N-[1-[4-[3-[3-[[ethyl(methyl)sulfamoyl]amino]-2,6-difluorobenzoyl]-1H-pyrrolo[2,3-b]pyridin-5-yl]phenyl]piperidin-4-yl]acetamide;formic acid] | 67 | 13 | – | – | – |

Other lines, results leading:

| DC50 [nM] | Emax [%] | DC50 (formic acid) [nM] | HiBit 24 h Emax (formic acid) [%] | HiBit 24 h Emax [%] | SMILES |
| --- | --- | --- | --- | --- | --- |
| 151 | 18 | – | – | – | CCN(C)S(=O)(=O)Nc1ccc(F)c(C(=O)c2c[nH]c3ncc(-c4ccc(N5CCC(NC(=O)CN6CCC(c7ccc(OC8CCC(=O)NC8=O)cn7)CC6)CC5)nc4)cc23)c1F (centres unmarked) [Example A65, 2-[4-[5-(2,6-Dioxopiperidin-3-yl)oxypyridin-2-yl]piperidin-1-yl]-N-[1-[5-[3-[3-[[ethyl(methyl)sulfamoyl]amino]-2,6-difluorobenzoyl]-1H-pyrrolo[2,3-b]pyridin-5-yl]pyridin-2-yl]piperidin-4-yl]acetamide;formic acid] |
| 17 | 13 | – | – | – | CCN(C)S(=O)(=O)Nc1ccc(F)c(C(=O)c2c[nH]c3ncc(-c4ccc(N5CCC(NC(=O)CN6CCC(c7ccc(NC8CCC(=O)NC8=O)cc7)CC6)CC5)nc4)cc23)c1F (centres unmarked) [Example A66, 2-[4-[4-[(2,6-Dioxopiperidin-3-yl)amino]phenyl]piperidin-1-yl]-N-[1-[5-[3-[3-[[ethyl(methyl)sulfamoyl]amino]-2,6-difluorobenzoyl]-1H-pyrrolo[2,3-b]pyridin-5-yl]pyridin-2-yl]piperidin-4-yl]acetamide; formic acid] |
| – | – | 7 | 11 | – | CCN(C)S(=O)(=O)Nc1ccc(F)c(C(=O)c2c[nH]c3ncc(-c4ccc(N5CCC(NC(=O)CN6CCC(c7ccc(NC8CCC(=O)NC8=O)cc7)CC6)CC5)cc4)cc23)c1F.O=CO (centres unmarked) [Example A67, 2-[4-[4-[(2,6-Dioxopiperidin-3-yl)amino]phenyl]piperidin-1-yl]-N-[1-[4-[3-[3-[[ethyl(methyl)sulfamoyl]amino]-2,6-difluorobenzoyl]-1H-pyrrolo[2,3-b]pyridin-5-yl]phenyl]piperidin-4-yl]acetamide; formic acid] |
| 50 | 11 | – | – | – | CCN(C)S(=O)(=O)Nc1ccc(F)c(C(=O)c2c[nH]c3ncc(-c4cnc(N5CCN(C(=O)CN6CCN(c7ccc(OC8CCC(=O)NC8=O)cn7)CC6)CC5)nc4)cc23)c1F (centres unmarked) [Example A68, 5-[2-[4-[2-[4-[5-(2,6-Dioxopiperidin-3-yl)oxypyridin-2-yl]piperazin-1-yl]acetyl]piperazin-1-yl]pyrimidin-5-yl]-3-[3-[[ethyl(methyl)sulfamoyl]amino]-2,6-difluorobenzoyl]-1H-pyrrolo[2,3-b]pyridine] |
| 7 | – | – | – | 12 | CCN(C)S(=O)(=O)Nc1ccc(F)c(C(=O)c2c[nH]c3ncc(-c4cnc(N5CCN(C(=O)CN6CCC(c7ccc(NC8CCC(=O)NC8=O)cn7)CC6)CC5)nc4)cc23)c1F (centres unmarked) [Example A69, 5-[2-[4-[2-[4-[5-[(2,6-Dioxopiperidin-3-yl)amino]pyridin-2-yl]piperidin-1-yl]acetyl]piperazin-1-yl]pyrimidin-5-yl]-3-[3-[[ethyl(methyl)sulfamoyl]amino]-2,6-difluorobenzoyl]-1H-pyrrolo[2,3-b]pyridine] |
| 19 | 18 | – | – | – | CCN(C)S(=O)(=O)Nc1ccc(F)c(C(=O)c2c[nH]c3ncc(-c4cnc(N5CCN(C(=O)CN6CCC(c7ccc(N(C)C8CCC(=O)NC8=O)cc7)CC6)CC5)nc4)cc23)c1F (centres unmarked) [Example A70, 5-[2-[4-[2-[4-[4-[(2,6-Dioxopiperidin-3-yl)-methylamino]phenyl]piperidin-1-yl]acetyl]piperazin-1-yl]pyrimidin-5-yl]-3-[3-[[ethyl(methyl)sulfamoyl]amino]-2,6-difluorobenzoyl]-1H-pyrrolo[2,3-b]pyridine] |

Reference: patent publication US12559492B2, “BRAF degraders” (C4 Therapeutics, Inc., priority 2020, dated 2026)
